Source: US9951028B2, “Agricultural chemicals” (REDAG CROP PROTECTION LTD, priority 2013, dated 2018)

Key:
[1] = test system: garden cress, Lepidium sativum; assay: Herbicidal efficacy screen, potter tower spray, necrosis assessed; assay type: in vivo
Procedure: (§1) Compounds 22, 23 and 24 were screened for herbicidal efficacy against target plants: garden cress, Lepidium sativum, common chickweed, Stellaria media, and white mustard […] alba Plants were obtained as seeds and were grown to the 2-4 true leaf stage. Plants were grown under laboratory conditions, individually in seed trays. Each plant (in an approximately 3 cm diameter plug) was then detached from the tray for spraying. The compounds were screened at a range of five concentrations, diluted in acetone and TweenTM. A carrier only control was also conducted. Treatments were applied directly onto the plants, using a potter tower, at a specified application rate. One plant of each species was sprayed using a potter tower. The 3 different types of plants were placed on a 10 cm diameter platform directly beneath the potter sprayer and sprayed simultaneously. The growth of the plants and any Phytotoxicity effects were then assessed at intervals over 21 days, according to EPPO guideline PP1/135. Five replicas were performed for each treatment, for each species. In the tables below C represents a percentage increase in necrosis relative to the control of 0.1-50; B represents a percentage inhibition of 50-80; and A represents a percentage inhibition of 80-100.

[2] = test system: white mustard Sinapsis alba; assay: as above; assay type: in vivo
Procedure: as §1

[3] = 12.5 g/ha, day 1 post application
[4] = 12.5 g/ha, day 2 post application
[5] = 12.5 g/ha, day 3 post application
[6] = 12.5 g/ha, day 4 post application
[7] = 12.5 g/ha, day 5 post application
[8] = 12.5 g/ha, day 7 post application
[9] = 12.5 g/ha, day 10 post application
[10] = 25 g/ha, day 1 post application
[11] = 25 g/ha, day 2 post application
[12] = 25 g/ha, day 3 post application
[13] = 25 g/ha, day 4 post application
[14] = 25 g/ha, day 5 post application
[15] = 25 g/ha, day 7 post application
[16] = 25 g/ha, day 10 post application
[17] = 50 g/ha, day 1 post application
[18] = 50 g/ha, day 2 post application
[19] = 50 g/ha, day 3 post application

CC(C)N(C)S(=O)(=O)NCc1cc(-n2c(=O)cc(C(F)(F)F)n(C)c2=O)c(F)cc1Cl [Compound 23, 1-[4-Chloro-2-fluoro-5-[[(isopropyl(methyl)sulfamoyl)amino]methyl]phenyl]-3-methyl-2,6-dioxo-4-(trifluoromethyl)pyrimidine]
Average of necrosis [1, 3]: C (C represents a percentage increase in necrosis relative to the control of 0.1-50) | Average of necrosis [1, 4]: C (C represents a percentage increase in necrosis relative to the control of 0.1-50) | Average of necrosis [1, 5]: C (C represents a percentage increase in necrosis relative to the control of 0.1-50) | Average of necrosis [1, 6]: C (C represents a percentage increase in necrosis relative to the control of 0.1-50) | Average of necrosis [1, 7]: C (C represents a percentage increase in necrosis relative to the control of 0.1-50) | Average of necrosis [1, 8]: C (C represents a percentage increase in necrosis relative to the control of 0.1-50) | Average of necrosis [1, 9]: C (C represents a percentage increase in necrosis relative to the control of 0.1-50) | Average of necrosis [1, 10]: C (C represents a percentage increase in necrosis relative to the control of 0.1-50) | Average of necrosis [1, 11]: C (C represents a percentage increase in necrosis relative to the control of 0.1-50) | Average of necrosis [1, 12]: C (C represents a percentage increase in necrosis relative to the control of 0.1-50) | Average of necrosis [1, 13]: C (C represents a percentage increase in necrosis relative to the control of 0.1-50) | Average of necrosis [1, 14]: C (C represents a percentage increase in necrosis relative to the control of 0.1-50) | Average of necrosis [1, 15]: C (C represents a percentage increase in necrosis relative to the control of 0.1-50) | Average of necrosis [1, 16]: B (B represents a percentage inhibition of 50-80) | Average of necrosis [1, 17]: C (C represents a percentage increase in necrosis relative to the control of 0.1-50) | Average of necrosis [1, 18]: C (C represents a percentage increase in necrosis relative to the control of 0.1-50) | Average of necrosis [1, 19]: C (C represents a percentage increase in necrosis relative to the control of 0.1-50) | Average of necrosis ([1]; 50 g/ha, day 4 post application): C (C represents a percentage increase in necrosis relative to the control of 0.1-50) | Average of necrosis ([1]; 50 g/ha, day 5 post application): B (B represents a percentage inhibition of 50-80) | Average of necrosis ([1]; 50 g/ha, day 7 post application): B (B represents a percentage inhibition of 50-80) | Average of necrosis ([1]; 50 g/ha, day 10 post application): B (B represents a percentage inhibition of 50-80) | Average of necrosis ([1]; 100 g/ha, day 1 post application): C (C represents a percentage increase in necrosis relative to the control of 0.1-50) | Average of necrosis ([1]; 100 g/ha, day 2 post application): C (C represents a percentage increase in necrosis relative to the control of 0.1-50) | Average of necrosis ([1]; 100 g/ha, day 3 post application): C (C represents a percentage increase in necrosis relative to the control of 0.1-50) | Average of necrosis ([1]; 100 g/ha, day 4 post application): C (C represents a percentage increase in necrosis relative to the control of 0.1-50) | Average of necrosis ([1]; 100 g/ha, day 5 post application): B (B represents a percentage inhibition of 50-80) | Average of necrosis ([1]; 100 g/ha, day 7 post application): B (B represents a percentage inhibition of 50-80) | Average of necrosis ([1]; 100 g/ha, day 10 post application): B (B represents a percentage inhibition of 50-80) | Average of necrosis ([1]; 200 g/ha, day 1 post application): C (C represents a percentage increase in necrosis relative to the control of 0.1-50) | Average of necrosis ([1]; 200 g/ha, day 2 post application): B (B represents a percentage inhibition of 50-80) | Average of necrosis ([1]; 200 g/ha, day 3 post application): B (B represents a percentage inhibition of 50-80) | Average of necrosis ([1]; 200 g/ha, day 4 post application): B (B represents a percentage inhibition of 50-80) | Average of necrosis ([1]; 200 g/ha, day 5 post application): B (B represents a percentage inhibition of 50-80) | Average of necrosis ([1]; 200 g/ha, day 7 post application): B (B represents a percentage inhibition of 50-80) | Average of necrosis ([1]; 200 g/ha, day 10 post application): B (B represents a percentage inhibition of 50-80) | Average of necrosis [2, 3]: C (C represents a percentage increase in necrosis relative to the control of 0.1-50) | Average of necrosis [2, 4]: C (C represents a percentage increase in necrosis relative to the control of 0.1-50) | Average of necrosis [2, 5]: C (C represents a percentage increase in necrosis relative to the control of 0.1-50) | Average of necrosis [2, 6]: C (C represents a percentage increase in necrosis relative to the control of 0.1-50) | Average of necrosis [2, 7]: C (C represents a percentage increase in necrosis relative to the control of 0.1-50) | Average of necrosis [2, 8]: C (C represents a percentage increase in necrosis relative to the control of 0.1-50) | Average of necrosis [2, 9]: C (C represents a percentage increase in necrosis relative to the control of 0.1-50) | Average of necrosis [2, 10]: C (C represents a percentage increase in necrosis relative to the control of 0.1-50) | Average of necrosis [2, 11]: C (C represents a percentage increase in necrosis relative to the control of 0.1-50) | Average of necrosis [2, 12]: C (C represents a percentage increase in necrosis relative to the control of 0.1-50) | Average of necrosis [2, 13]: C (C represents a percentage increase in necrosis relative to the control of 0.1-50) | Average of necrosis [2, 14]: C (C represents a percentage increase in necrosis relative to the control of 0.1-50) | Average of necrosis [2, 15]: C (C represents a percentage increase in necrosis relative to the control of 0.1-50) | Average of necrosis [2, 16]: C (C represents a percentage increase in necrosis relative to the control of 0.1-50) | Average of necrosis [2, 17]: C (C represents a percentage increase in necrosis relative to the control of 0.1-50) | Average of necrosis [2, 18]: C (C represents a percentage increase in necrosis relative to the control of 0.1-50) | Average of necrosis [2, 19]: C (C represents a percentage increase in necrosis relative to the control of 0.1-50)
